From patent US8043422B2, “Combinations of phenylpyrroles and pyrion compounds” (Janssen Pharmaceutica, NV, priority 2008, dated 2011)
Where two headings read alike, the source gives them in different places.

Experiments:
Format in all cases: cell-based
[1] = system: Staphylococcus aureus (g+) LMG 8064; experiment: Poison Plate Assay, bacteria; conditions: for MIC: LMG8064, 120 h, read-out: MIC-values (minimum inhibitory concentration) in ppm; for MIC-values (minimum inhibitory concentration) in ppm: fludioxonil (I-a) with sodium pyrithione (II-h)
Protocol: (§1) • Test models: • Fungi: to each well of a 24-well microtiter plate, 1000 μl of a rich (Potato Dextrose Agar, PDA: 4 g potato infusion, 20 g bacto dextrose and 15 g bacto agar in 1 liter deionised water) or poor (Glucose Agar, GA: 10 g glucose, 1.5 g K2HPO4, 2 g KH2PO4, 1 g (NH4)2SO4, 0.5 g MgSO4 and 12.5 g agar in 1 liter deionised water) medium containing the appropriate combination of the test compounds in one of the concentrations of a dose series is added. The nutrient medium is inoculated with the test fungi by adding a spore/mycelium suspension (10 μl) or a small piece of agar from the margin of an actively growing colony and incubated under dark at 27° C. with 70% relative humidity. The growth of the fungi is evaluated after two weeks. • Glucose agar was used in some experiments instead of PDA (Potato Dextrose Agar), as an alternative, poorer medium for the fungi, in order to increase the chances of detecting activity in compounds like fludioxonil, whose mode of action could be partly circumvented by fungi on a richer medium (Copping, L. and Hewitt, G. (1998) “Chemistry and mode of action of crop protection agents.” The Royal Society of Chemistry, Cambridge. 145 pp.). • Bacteria: to each well of a 24-well microtiter plate, 1000 μL Tryptose Agar (TA, 20 g bacto tryptose agar, 5 g sodium chloride, 1 g bacto dextrose and 15 g agar in 1 liter deionised water), containing the test compounds in one of the concentrations of a dose series is added. The nutrient medium is inoculated by adding 10 μl of an actively growing liquid culture of the test bacteria in tryptose broth (without agar), and incubated under dark at 27° C. with 70% relative humidity. Growth is evaluated after five days. • Concentrations: • MIC values for single compounds were collected from previous screening experiments. These MIC values were used as a guide in determining of the most suitable test dose ranges. • Synergy experiment with bispyrithione: • 25.00-18.75-14.06-10.55-7.91-5.93-4.45-3.34-2.50-1.88-1.41-1.06 ppm • Synergy experiment with sodium pyrithione: • 10.00-7.50-5.63-4.22-3.16-2.37-1.78-1.33-1.00-0.75-0.56-0.42 ppm Test combinations:
(§2) (2000) “Measuring synergy” cosmetics & Toiletries 115(11): 59-62; and Lada, A., A. N. Petrocci, H. A. Green, and J. J. Merianos (1977) “Antimicrobial composition” U.S. Pat. No. 4,061,750, 3 pp.):
(§3) [formula] wherein: • QA is the concentration of compound A in ppm, acting alone, which produced an end point (e.g. MIC), • Qa is the concentration of compound A in ppm, in the mixture, which produced an end point (e.g. MIC), • QB is the concentration of compound B in ppm, acting alone, which produced an end point (e.g. MIC), • Qb is the concentration of compound B in ppm, in the mixture, which produced an end point (e.g. MIC). […]

[2] = system: Coriolus versicolor CTB863A; experiment: Poison Plate Assay, fungi; conditions: Trametes versicolor, 336 h, read-out: MIC-values (minimum inhibitory concentration) in ppm
Protocol: as §1, §2, §3

[3] = system: Ulocladium atrum IMI214699a; experiment: Poison Plate Assay, fungi
Protocol: as §1, §2, §3

[4] = ppm total active ingredient, Tryptose Agar, 27° C., growth evaluated after five days

SMILES	MIC ([1]; fludioxonil (I-a) with pyrion disulfide (II-g), ppm total active ingredient, Tryptose Agar, 27° C., growth evaluated after five days)	MIC ([2]; Coriolus versicolor, fludioxonil (I-a) with pyrion disulfide (II-g), ppm total active ingredient, 27° C., growth evaluated after two weeks)	MIC [1]	MIC-values (minimum inhibitory concentration) in ppm [1, 4]	MIC [2]	MIC ([3]; Alternaria atra, IMI214699A, 336 h, read-out: MIC-values (minimum inhibitory concentration) in ppm)	MIC-values (minimum inhibitory concentration) in ppm ([3]; Ulocladium atrum, fludioxonil (I-a) with sodium pyrithione (II-h), ppm total active ingredient, 27° C., growth evaluated after two weeks)
[O-][n+]1ccccc1SSc1cccc[n+]1[O-] [pyrion disulfide (II-g), pyrion disulfide]	4.45 µg/mL	18.8 µg/mL	–	–	–	–	–
N#Cc1c[nH]cc1-c1cccc2c1OC(F)(F)O2 [fludioxonil (I-a), 4-(2,2-difluoro-1,3-benzodioxol-4-yl)-1H-pyrrole-3-carbonitrile]	–	–	40 µg/mL	40.00 ppm	40 µg/mL	100 µg/mL	–
[Na+].[O-][n+]1ccccc1[S-] [sodium pyrithione (II-h), sodium pyrithione]	–	–	–	4.22 ppm	–	–	2.37 ppm
